Laboratory results as given in patent publication US20160106723A1, “METHODS TO SENSE AND TREAT SUBCLINICAL SKIN DAMAGE” (priority 2014, published 2016).

Assays:
[1] = tested on: subclinical skin damage in unblemished skin; assay: Topical treatment of unblemished skin of participants, observed skin reaction (photographs); format: in vivo, human; conditions: participant
From the text: The response of sun or UV damaged cells to Imiquimod in these non-suspicious areas are indicative of altered cells. Clearly subclinical skin damage or AK may exist in the skin but may not be clinically evident in their early development as appearing in FIGS. 1A, 2A, 3A, 4A, 5A, 6A, and 7A.
The detailed method of treatment of subclinical skin damage and of inducing an immune cell response in unblemished skin involves topical application of formulation essentially comprising Imiquimod in an effective amount during a cycle of therapy that is in the range of two to four weeks; and observing the skin for the response; wherein the composition is administered once or twice daily during the cycle of therapy, which is repeated at least once on a substantially annual basis.

normal human skin = conditions: cited from earlier work

CC(C)Cn1cnc2c(N)nc3ccccc3c21 [Imiquimod]
skin reaction after treatment ([1]; FIG. 1B, chest region, 11 days of treatment, strength about 3.75%): severe erythema
skin reaction after treatment ([1]; FIG. 2B, chest region, fourteen days of treatment, strength about 5.00%): moderate erythema
skin reaction after treatment ([1]; FIG. 3B, chest region, fourteen days of treatment, strength about 3.75%): moderate erythema
skin reaction after treatment ([1]; FIG. 5B, forehead region, fifteen days of treatment, strength about 3.75%): moderate reaction
skin reaction after treatment ([1]; FIG. 6B, scalp region, ten days of treatment, strength about 2.5%): moderate reaction
skin reaction after treatment ([1]; FIG. 7B, cheek region, fourteen days of treatment, strength about 2.5%): moderate reaction
skin reaction after treatment ([1]; FIG. 8A, cheek region, fourteen days of treatment, strength about 2.5%): moderate reaction
skin reaction after treatment ([1]; FIG. 8B and 8C, forehead region, fourteen days of treatment, strength about 2.5%): moderate reaction
skin reaction after treatment ([1]; FIGS. 4B and 4C, cheek region, twelve days of treatment, strength about 2.5%): mild reaction
effect on IL-10 production (normal human skin): reduced IL-10 production
effect on resident T cells (normal human skin): induced activation of resident T cells
